How the values were obtained:
[1] = tested on: DBA/2N type mice; assay: Audiogenic seizure suppressing effect; assay type: in vivo; conditions: compound 10 mg/kg, i.p., audio stimulus after 20 minutes, suppression of average seizure score; for inhibition in vivo at 10 mg/kg: Mus musculus, ip, 20 min, read-out: Antiseizure effect (suppression rate %)
Procedure: Audiogenic Seizure Suppressing Effect
The audiogenic seizure suppressing effect of the compounds was evaluated by the method of Sarro et al. [G. B. De Sarro et al., Br. J. Pharmacol., 93, 247 (1988)]. That is, the compound dissolved in 10% 2-hydroxypropyl-β-cyclodextrin was administered intraperitoneally to DBA/2N type mice (male, 3 weeks old). After 20 minutes, a supersonic washer was used to apply audio stimulus of at least 90 dB for one minute. The wild running (WR), clonic seizures (clonus), tonic seizures (tonus), and respiratory arrest (RA) were observed.

[2] = tested on: Sodium channel; assay: Inhibitory effect of veratrizine-induced sodium channel activity (synaptosome membrane potential, Rhodamine 6G); assay type: biochemical, Wistar rats; conditions: compound 0.1 μM, rat brain synaptozomes, veratridine-induced depolarization
Procedure: Inhibitory Effect of Veratrizine-induced Sodium Channel Activity
The membrane potential of the synaptozomes prepared from the brain membrane of Wistar rats (male, 10 to 12 weeks old) was measured by the method of Aiuchi et al. (t. Aiuchi et al: Biochimi. Biophys. Acta. 771, 228 (1984)) using a membrane potential sensitive fluorescent dye Rhodamine 6G to evaluate the effects of suppression of the compound on the veratrizine-inducing depolarization response.

[3] = tested on: T-type Ca^2+ channel; assay: T-type calcium channel inhibitory effect (whole-cell patch clamp, hippocampal CA1 pyramidal cells); conditions: read-out: T-type Ca^2+ channel inhibitory effect IC50; suppression of peak current after one minute of application; rat hippocampal CA1 pyramidal cells
Procedure: T-Type Calcium Channel Inhibitory Effect
The hippocampal CA1 pyramidal cells were isolated from Wistar rats (female, 1 week old) according to the method reported by Takahashi et al. [K. Takahashi et al.; J. Pharmacol. Exp. Ther., 256, 169 (1991)] and the T-type calcium current under conditions of a fixed membrane potential was measured using the whole-cell configration of the patch clamp technique. The effects of the compounds were evaluated from the rate of suppression of the peak current after one minute of application using the concentration clamp method.

Row | Compound | inhibition in vivo at 10 mg/kg [1] | Anti-veratridine effect (inhibiting rate %) [2] | other results
1 | C(=C\c1ccccc1)/CN1CCC(c2ccc(-c3ccccc3)cc2)CC1 [Compound 22, (E)-4-(4-phenyl)phenyl-1-(3-phenyl-2-propenyl)piperidine] | 72% | – | –
2 | Cc1cccc(C)c1NC(=O)CN1CCC(O)(c2ccc(Oc3ccccc3)cc2)CC1 [Compound 55, N-(2,6-dimethylphenyl)-4-hydroxy-4-(4-phenoxy)phenyl-1-piperidinacetamide] | 71.7% | 28.3% | –
3 | OC1(c2ccc(Cc3ccc(F)cc3)cc2)CCN(C/C=C/c2ccccc2)CC1 [Compound 37, (E)-4-[4-(4-fluorophenyl)methylphenyl]-1-1-(3-phenyl-2-propenyl)-4-piperidinol] | 88% | 39.7% | –
4 | c1ccc(-c2ccc(C3CCN(CC4CC4c4ccccc4)CC3)cc2)cc1 (stereo not drawn) [Compound 27, 4-(4-phenyl)phenyl-1-(trans-2-phenyl-1-cyclopropylmethyl)piperidine] | 52% | 41% | –
5 | OC(COc1ccccc1)CN1CCC(O)(c2ccc(Oc3ccccc3)cc2)CC1 (stereo not shown) [Compound 36, 4-(4-phenoxy)phenyl-1-(2-hydroxy-3-phenoxy)propyl-4-piperidinol] | 68% | – | Anti-veratridine effect (inhibiting rate %) ([2]; 0.1 µM): 28.6%
6 | O=C(CN1CCC(O)(c2ccc(Oc3ccccc3)cc2)CC1)NC1(c2ccccc2)CC1 [Compound 57, N-(1-phenyl)cyclopropyl-4-hydroxy-4-(4-phenoxy)phenyl-1-piperidinacetamide] | 60% | 40.1% | –
7 | OC1(c2ccc(Oc3ccccc3)cc2)CCN(C/C=C/c2ccccc2)CC1 [Compound 34, (E)-4-(4-phenoxy)phenyl-1-(3-phenyl-2-propenyl)-4-piperidinol] | 80% | 29.9% | IC50 [3]: 1700 nM
8 | O=C(CN1CCC(O)(c2ccc(Cc3ccc(F)cc3)cc2)CC1)N[C@@H]1C[C@H]1c1ccccc1 (relative stereo) [Compound 54, N-(trans-2-phenyl-1-cyclopropyl)-4-[4-(4-fluorophenyl)methylphenyl]-4-hydroxy-1-piperidinacetamide] | 58% | 20.4% | –
9 | OC(COc1ccccc1)CN1CCC(O)(c2ccc(-c3ccccc3)cc2)CC1 (stereo not shown) [Compound 41, 1-(2-hydroxy-3-phenoxy)propyl-4-(4-phenyl)phenyl-4-piperidinol] | 92% | 23.7% | –
10 | OC1(c2ccc(-c3ccccc3)cc2)CCN(C/C=C/c2ccccc2)CC1 [Compound 33, (E)-4-(4-phenyl)phenyl-1-(3-phenyl-2-propenyl)-4-piperidinol] | – | 12.8% | –
11 | c1ccc(-c2ccc(C3CCN(CC4(c5ccccc5)CC4)CC3)cc2)cc1 [Compound 28, 4-(4-phenyl)phenyl-1-(1-phenyl-1-cyclopropane)methylpiperidine] | 56% | 24% | –
12 | OC1(c2ccc(Oc3ccccc3)cc2)CCN(CC2(c3ccccc3)CC2)CC1 [Compound 49, 4-(4-phenoxy)phenyl-1-(1-phenyl-1-cyclopropane)methyl-4-piperidinol] | 50% | 18.9% | –
13 | COc1ccc(C(=O)CN2CCC(O)(c3ccc(-c4ccccc4)c(F)c3)CC2)cc1 [Compound 21, 4-(3-fluoro-4-phenyl)phenyl-1-[2-(4-methoxyphenyl)-2-oxoethyl]-4-piperidinol] | 91.3% | 18.6% | –
14 | O[C@H](COc1ccccc1)CN1CCC(O)(c2ccc(Cc3ccc(F)cc3)cc2)CC1 [Compound 47, (S)-4-[4-(4-fluorophenyl)methylphenyl]-1-(2-hydroxy-3-phenoxy)propyl-4-piperidinol] | – | – | Anti-veratridine effect (inhibiting rate %) ([2]; 0.1 µM): 39.5%; Antiseizure effect (suppression rate %) ([1]; 10 mg/kg): 78%
15 | O[C@H](COc1ccccc1)CN1CCC(O)(c2ccc(Oc3ccccc3)cc2)CC1 [Compound 45, (S)-4-(4-phenoxy)phenyl-1-(2-hydroxy-3-phenoxy)propyl-4-piperidinol] | – | – | Anti-veratridine effect (inhibiting rate %) ([2]; 0.1 µM): 19.8%; Antiseizure effect (suppression rate %) ([1]; 10 mg/kg): 82%
16 | O[C@@H](COc1ccccc1)CN1CCC(O)(c2ccc(Cc3ccc(F)cc3)cc2)CC1 [Compound 48, (R)-4-[4-(4-fluorophenyl)methylphenyl]-1-(2-hydroxy-3-phenoxy)propyl-4-piperidinol] | 82% | 22.7% | –
17 | O[C@@H](COc1ccccc1)CN1CCC(O)(c2ccc(Oc3ccccc3)cc2)CC1 [Compound 46, (R)-4-(4-phenoxy)phenyl-1-(2-hydroxy-3-phenoxy)propyl-4-piperidinol] | – | 19.8% | Antiseizure effect (suppression rate %) [1]: 82%

Row | Compound | inhibition in vivo at 10 mg/kg [1] | Anti-veratridine effect (inhibiting rate %) [2] | other results
18 | O=C(CN1CCC(c2ccc(-c3ccccc3)c(F)c2)CC1)c1ccccc1 [Compound 19, 4-(3-fluoro-4-phenyl)phenyl-1-(2-phenyl-2-oxoethyl)piperidine] | 52% | 12.9% | –
19 | O=C(CN1CCC(O)(c2ccc(Cc3ccc(F)cc3)cc2)CC1)NC1(c2ccccc2)CC1 [Compound 58, N-(1-phenyl)cyclopropyl-4-hydroxy-4-[4-(4-fluorophenyl)methylphenyl]-1-piperidinacetamide] | 51.7% | 11.3% | –
20 | OC(COc1ccccc1)CN1CCC(c2ccc(-c3ccccc3)cc2)CC1 (stereo not shown) [Compound 29, 4-(4-phenyl)phenyl-1-(2-hydroxy-3-phenoxy)propylpiperidine] | 68% | 40% | –
21 | O=C(CN1CCC(O)(c2ccc(-c3ccccc3)cc2)CC1)c1ccccc1 [Compound 40, 1-(2-phenyl-2-oxoethyl)-4-(4-phenyl)phenyl-4-piperidinol] | 84% | 23% | –
22 | OC(COc1ccccc1)CN1CCC(O)(c2ccc(-c3ccccc3)c(F)c2)CC1 (stereo not shown) [Compound 24, 4-(3-fluoro-4-phenyl)phenyl-1-(2-hydroxy-3-phenoxy)propyl-4-piperidinol] | 74% | 23.8% | –
23 | O=C(CN1CCC(O)(c2ccc(Oc3ccccc3)cc2)CC1)c1ccccc1 [Compound 35, 4-(4-phenoxy)phenyl-1-(2-phenyl-2-oxoethyl)-4-piperidinol] | 98% | 27.7% | –
24 | O=C(CN1CCC(O)(c2ccc(Oc3ccccc3)cc2)CC1)NC1CC1c1ccccc1 (stereo not drawn) [Compound 53, N-(trans-2-phenyl-1-cyclopropyl)-4-hydroxy-4-(4-phenoxy)phenyl-1-piperidinacetamide] | 74% | 32.3% | –
25 | OC(CN1CCC(O)(c2ccc(-c3ccccc3)cc2)CC1)c1ccccc1 (stereo not shown) [Compound 44, 1-(2-hydroxy-2-phenyl)ethyl-4-(4-phenyl)phenyl-4-piperidinol] | 68% | – | –
26 | O=C(CN1CCC(c2ccc(-c3ccccc3)c(F)c2)CC1)NC1CC1c1ccccc1 (stereo not drawn) [Compound 31, N-(trans-2-phenyl-1-cyclopropyl)-4-(3-fluoro-4-phenyl)phenyl-1-piperidinacetamide] | – | 14% | –
27 | O=C(CN1CCC(c2ccc(-c3ccccc3)cc2)CC1)c1ccccc1 [Compound 23, 4-(4-phenyl)phenyl-1-(2-phenyl-2-oxoethyl)piperidine] | 84% | 11.3% | –
28 | OC1(c2ccc(-c3ccccc3)c(F)c2)CCN(CC2CC2c2ccccc2)CC1 (stereo not shown) [Compound 32] | – | 27.3% | –
29 | Fc1cc(C2CCN(CC3CC3c3ccccc3)CC2)ccc1-c1ccccc1 (stereo not drawn) [Compound 25, 4-(3-fluoro-4-phenyl)phenyl-1-(trans-2-phenyl-1-cyclopropylmethyl)piperidine] | 54% | 57% | –
30 | Fc1cc(C2CCN(C/C=C/c3ccccc3)CC2)ccc1-c1ccccc1 [Compound 18, (E)-4-(3-fluoro-4-phenyl)phenyl-1-(3-phenyl-2-propenyl)piperidine] | 62% | 13.1% | –
31 | O=C(CN1CCC(O)(c2ccc(Cc3ccc(F)cc3)cc2)CC1)c1ccccc1 [Compound 38, 4-[4-(4-fluorophenyl)methylphenyl]-1-(2-phenyl-2-oxoethyl)-4-piperidinol] | 82% | 18% | –
32 | OC1(c2ccc(Oc3ccccc3)cc2)CCN(CC2CC2c2ccccc2)CC1 (stereo not drawn) [Compound 50, 4-(4-phenoxy)phenyl-1-(trans-2-phenyl-1-cyclopropylmethyl)-4-piperidinol] | 56% | 33.4% | –
33 | OC1(c2ccc(-c3ccccc3)c(F)c2)CCN(CC2(c3ccccc3)CC2)CC1 [Compound 26, 4-(3-fluoro-4-phenyl)phenyl-1-(1-phenyl-1-cyclopropane)methyl-1-piperidinol] | – | 30% | –
